# The supplement of paper PMC10307832
# How the values were obtained:
# Experiment in all cases: relative viability (nuclei count vs DMSO), 5 days (fraction); higher = more cells survive
# LCLC-97TM1 = tested on: LCLC-97TM1
# Summary of the method: (§1)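 Cells from lung cancer lines were seeded into 1536-well plates and, one day later, dosed by pin tool. Treatments were either a single drug or a fixed dose of an anchor drug with five library-drug doses (not always all listed) in √10 steps. After 5 days, nuclei were stained in a one-step fixation (final 0.05% Triton X-100, 1% formaldehyde, 1 ug/ml Hoechst) and counted on 4× images, and relative viability is the treated-to-vehicle nuclei ratio, as the median of duplicate plates.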
# NCI-H661 = tested on: NCI-H661
# Summary of the method: as §1
# NCI-H23 = tested on: NCI-H23
# Summary of the method: as §1
# NCI-H2347 = tested on: NCI-H2347
# Summary of the method: as §1
# COR-L 105 = tested on: COR-L 105
# Summary of the method: as §1
# HCC-78 = tested on: HCC-78
# Summary of the method: as §1
# PC-14 = tested on: PC-14
# Summary of the method: as §1
# HCC-827 = tested on: HCC-827
# Summary of the method: as §1
# NCI-H520 = tested on: NCI-H520
# Summary of the method: as §1
# RERF-LC-KJ = tested on: RERF-LC-KJ
# Summary of the method: as §1
# H3255 = tested on: H3255
# Summary of the method: as §1
# NCI-H1666 = tested on: NCI-H1666
# Summary of the method: as §1
# NCI-H2126 = tested on: NCI-H2126
# Summary of the method: as §1
# NCI-H650 = tested on: NCI-H650
# Summary of the method: as §1
# NCI-H2405 = tested on: NCI-H2405
# Summary of the method: as §1
# 201T = tested on: 201T
# Summary of the method: as §1
# NCI-H322M = tested on: NCI-H322M
# Summary of the method: as §1
# NCI-H647 = tested on: NCI-H647
# Summary of the method: as §1
# NCI-H2087 = tested on: NCI-H2087
# Summary of the method: as §1
# NCI-H1915 = tested on: NCI-H1915
# Summary of the method: as §1
# LC-2-ad = tested on: LC-2-ad
# Summary of the method: as §1
# EPLC-272H = tested on: EPLC-272H
# Summary of the method: as §1
smiles,measurement,setting,value
Oc1nc(-c2ccc(C(F)(F)F)cc2)nc2c1CSCC2 [XAV939] + Cc1nc(NC(=O)N2CCC[C@H]2C(N)=O)sc1-c1ccnc(C(C)(C)C(F)(F)F)c1 [Alpelisib] (partner 2 µM),relative viability,LCLC-97TM1; first compound 0.08 µM,0.256
same,relative viability,LCLC-97TM1; first compound 0.253 µM,0.232
same,relative viability,LCLC-97TM1; first compound 0.8 µM,0.252
same,relative viability,LCLC-97TM1; first compound 2.53 µM,0.243
same,relative viability,NCI-H661; first compound 0.08 µM,0.655
same,relative viability,NCI-H661; first compound 0.253 µM,0.621
same,relative viability,NCI-H661; first compound 0.8 µM,0.833
same,relative viability,NCI-H661; first compound 2.53 µM,0.492
same,relative viability,NCI-H23; first compound 0.08 µM,0.663
same,relative viability,NCI-H23; first compound 0.253 µM,0.659
same,relative viability,NCI-H23; first compound 0.8 µM,0.627
same,relative viability,NCI-H23; first compound 2.53 µM,0.456
same,relative viability,NCI-H2347; first compound 0.08 µM,1.08
same,relative viability,NCI-H2347; first compound 0.253 µM,0.97
same,relative viability,NCI-H2347; first compound 0.8 µM,1.05
same,relative viability,NCI-H2347; first compound 2.53 µM,0.926
same,relative viability,COR-L 105; first compound 0.08 µM,1.14
same,relative viability,COR-L 105; first compound 0.253 µM,0.867
same,relative viability,COR-L 105; first compound 0.8 µM,0.952
same,relative viability,COR-L 105; first compound 2.53 µM,0.576
same,relative viability,HCC-78; first compound 0.08 µM,0.35
same,relative viability,HCC-78; first compound 0.253 µM,0.248
same,relative viability,HCC-78; first compound 0.8 µM,0.375
same,relative viability,HCC-78; first compound 2.53 µM,0.273
same,relative viability,PC-14; first compound 0.08 µM,1.03
same,relative viability,PC-14; first compound 0.253 µM,0.829
same,relative viability,PC-14; first compound 0.8 µM,0.906
same,relative viability,PC-14; first compound 2.53 µM,0.796
same,relative viability,HCC-827; first compound 0.08 µM,1.04
same,relative viability,HCC-827; first compound 0.253 µM,0.934
same,relative viability,HCC-827; first compound 0.8 µM,0.967
same,relative viability,HCC-827; first compound 2.53 µM,0.969
same,relative viability,NCI-H520; first compound 0.08 µM,0.842
same,relative viability,NCI-H520; first compound 0.253 µM,0.755
same,relative viability,NCI-H520; first compound 0.8 µM,0.916
same,relative viability,NCI-H520; first compound 2.53 µM,0.648
same,relative viability,RERF-LC-KJ; first compound 0.08 µM,0.702
same,relative viability,RERF-LC-KJ; first compound 0.253 µM,0.708
same,relative viability,RERF-LC-KJ; first compound 0.8 µM,0.768
same,relative viability,RERF-LC-KJ; first compound 2.53 µM,0.735
same,relative viability,H3255; first compound 0.08 µM,0.965
same,relative viability,H3255; first compound 0.253 µM,0.709
same,relative viability,H3255; first compound 0.8 µM,0.414
same,relative viability,H3255; first compound 2.53 µM,0.522
same,relative viability,NCI-H1666; first compound 0.08 µM,0.87
same,relative viability,NCI-H1666; first compound 0.253 µM,0.63
same,relative viability,NCI-H1666; first compound 0.8 µM,0.721
same,relative viability,NCI-H1666; first compound 2.53 µM,0.591
same,relative viability,NCI-H2126; first compound 0.08 µM,0.748
same,relative viability,NCI-H2126; first compound 0.253 µM,0.661
same,relative viability,NCI-H2126; first compound 0.8 µM,0.664
same,relative viability,NCI-H2126; first compound 2.53 µM,0.563
same,relative viability,NCI-H650; first compound 0.08 µM,1.3
same,relative viability,NCI-H650; first compound 0.253 µM,0.959
same,relative viability,NCI-H650; first compound 0.8 µM,1.15
same,relative viability,NCI-H650; first compound 2.53 µM,0.864
same,relative viability,NCI-H2405; first compound 0.08 µM,0.922
same,relative viability,NCI-H2405; first compound 0.253 µM,0.804
same,relative viability,NCI-H2405; first compound 0.8 µM,0.732
same,relative viability,NCI-H2405; first compound 2.53 µM,0.635
same,relative viability,201T; first compound 0.08 µM,1
same,relative viability,201T; first compound 0.253 µM,0.875
same,relative viability,201T; first compound 0.8 µM,0.947
same,relative viability,201T; first compound 2.53 µM,0.902
same,relative viability,NCI-H322M; first compound 0.08 µM,0.844
same,relative viability,NCI-H322M; first compound 0.253 µM,0.656
same,relative viability,NCI-H322M; first compound 0.8 µM,0.741
same,relative viability,NCI-H322M; first compound 2.53 µM,0.718
same,relative viability,NCI-H647; first compound 0.08 µM,1.25
same,relative viability,NCI-H647; first compound 0.253 µM,1
same,relative viability,NCI-H647; first compound 0.8 µM,1.06
same,relative viability,NCI-H647; first compound 2.53 µM,0.922
same,relative viability,NCI-H2087; first compound 0.08 µM,1.24
same,relative viability,NCI-H2087; first compound 0.253 µM,0.914
same,relative viability,NCI-H2087; first compound 0.8 µM,1.09
same,relative viability,NCI-H2087; first compound 2.53 µM,0.889
same,relative viability,NCI-H1915; first compound 0.08 µM,1.08
same,relative viability,NCI-H1915; first compound 0.253 µM,1.07
same,relative viability,NCI-H1915; first compound 0.8 µM,1.03
same,relative viability,NCI-H1915; first compound 2.53 µM,1.08
same,relative viability,LC-2-ad; first compound 0.08 µM,0.901
same,relative viability,LC-2-ad; first compound 0.253 µM,0.711
same,relative viability,LC-2-ad; first compound 0.8 µM,0.848
same,relative viability,LC-2-ad; first compound 2.53 µM,0.804
same,relative viability,EPLC-272H; first compound 0.08 µM,0.958
same,relative viability,EPLC-272H; first compound 0.253 µM,0.863
same,relative viability,EPLC-272H; first compound 0.8 µM,0.908
same,relative viability,EPLC-272H; first compound 2.53 µM,0.889
